From patent US10166216B2 (Rigel Pharmaceuticals, Inc., priority 2006, dated 2019)

Target: Axl (Homo sapiens (Human), UniProt P30530)
Assay: Phospho-Akt in-cell Western assay (Axl-antibody cross-linking stimulation)
Format: cell-based
Conditions: inhibition of Axl activity
Summary of the method: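 HeLa cells on poly-L-lysine, starved 24 hrs with Axl/Fc, pre-treated with compound 1 hr at 37° C., then stimulated 5 min with Axl primary/secondary antibody cluster. Fixed cells probed for phospho-Akt by chemiluminescent in-cell Western; signal normalized to crystal violet cell number.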

[1] = Hela cells, phospho-Akt readout, Table 7, formula (Ia4)
[2] = phospho-Akt in-cell Western assay
[3] = Hela cells, phospho-Akt readout, Table 5, formula (Ia3)

Axl, sequence (P30530 26-894): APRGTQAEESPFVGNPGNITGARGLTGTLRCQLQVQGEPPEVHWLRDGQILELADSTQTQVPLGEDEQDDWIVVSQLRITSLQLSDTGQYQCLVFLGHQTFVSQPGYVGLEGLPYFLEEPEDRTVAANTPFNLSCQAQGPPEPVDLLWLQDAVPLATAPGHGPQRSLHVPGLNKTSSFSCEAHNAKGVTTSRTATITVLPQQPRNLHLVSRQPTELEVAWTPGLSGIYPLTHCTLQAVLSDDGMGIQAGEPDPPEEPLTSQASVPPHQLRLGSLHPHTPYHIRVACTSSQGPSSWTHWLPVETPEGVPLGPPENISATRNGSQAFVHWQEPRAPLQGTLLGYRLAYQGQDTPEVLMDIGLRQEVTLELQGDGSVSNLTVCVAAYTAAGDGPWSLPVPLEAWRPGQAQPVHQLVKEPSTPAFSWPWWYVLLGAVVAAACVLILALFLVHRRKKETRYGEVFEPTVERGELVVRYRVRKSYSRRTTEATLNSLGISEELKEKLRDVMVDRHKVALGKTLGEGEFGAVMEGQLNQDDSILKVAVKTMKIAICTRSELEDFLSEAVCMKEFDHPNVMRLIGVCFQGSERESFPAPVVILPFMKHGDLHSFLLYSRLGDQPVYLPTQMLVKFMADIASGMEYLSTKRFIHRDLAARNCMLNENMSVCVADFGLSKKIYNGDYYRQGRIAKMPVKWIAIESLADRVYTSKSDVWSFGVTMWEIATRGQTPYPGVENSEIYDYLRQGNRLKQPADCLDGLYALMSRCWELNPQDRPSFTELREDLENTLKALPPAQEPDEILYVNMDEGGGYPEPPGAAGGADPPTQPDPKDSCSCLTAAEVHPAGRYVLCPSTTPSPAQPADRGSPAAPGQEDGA

SMILES | IC50 [2] | also measured
Cc1csc2c(-n3nc(Nc4ccc5c(c4)CCC(NC4CC6CCC4C6)CC5)nc3N)nc(Cl)nc12 (centres unmarked) [Compound 222, 1-(7-methyl-2-chlorothieno[3,2-d]pyrimidin-4-yl)-N^3-(7-(N-bicyclo[2.2.1]heptan-2-yl)amino-6,7,8,9-tetrahydro-5H-benzo[7]annulene-2-yl)-1H-1,2,4-triazole-3,5-diamine] |  | IC50 [1]: < 1000 nM
COc1cc2ncnc(-n3nc(Nc4ccc5c(c4)CCC(NC4CC6CCC4C6)CC5)nc3N)c2cc1OC (centres unmarked) [Compound 223, 1-(6,7-dimethoxyquinazolin-4-yl)-N^3-(7-(N-bicyclo[2.2.1]heptan-2-yl)amino-6,7,8,9-tetrahydro-5H-benzo[7]annulene-2-yl)-1H-1,2,4-triazole-3,5-diamine] |  | IC50 [1]: < 1000 nM
COc1cc2ncnc(-n3nc(Nc4ccc5c(c4)CCC(N(C)C4CC6CCC4C6)CC5)nc3N)c2cc1OC (centres unmarked) [Compound 224, 1-(6,7-dimethoxy-quinazolin-4-yl)-N^3-(7-(N-methyl-N-bicyclo[2.2.1]heptan-2-yl)amino-6,7,8,9-tetrahydro-5H-benzo[7]annulene-2-yl)-1H-1,2,4-triazole-3,5-diamine] |  | IC50 [1]: < 1000 nM
Cc1cc(Nc2nc(N)n(-c3nc(Cl)nc4c(C)csc34)n2)ccc1N1CCN(C2CC3CCC2C3)CC1 (centres unmarked) [Compound 225, 1-(7-methyl-2-chlorothieno[3,2-d]pyrimidin-4-yl)-N^3-(3-methyl-4-(4-(bicyclo[2.2.1]heptan-2-yl)piperazin-1-yl)phenyl)-1H-1,2,4-triazole-3,5-diamine] | < 1000 nM | 
Cc1nnc(-n2nc(Nc3ccc(N4CCN([C@H]5C[C@@H]6CC[C@H]5C6)CC4)c(F)c3)nc2N)c2sccc12 [Compound 226, 1-(4-methylthieno[3,2-d]pyridazin-7-yl)-N^3-(3-fluoro-4-(4-((1S,2S,4R)-bicyclo[2.2.1]heptan-2-yl)piperazin-1-yl)phenyl)-1H-1,2,4-triazole-3,5-diamine] | < 1000 nM | 
COc1ccc2nc(Cl)c(-n3nc(Nc4ccc(N5CCN([C@H]6C[C@@H]7CC[C@H]6C7)CC5)c(F)c4)nc3N)nc2c1 [Compound 227, 1-(2-chloro-6-methoxy-quinoxalin-3-yl)-N^3-(3-fluoro-4-(4-((1S,2S,4R)-bicyclo[2.2.1]heptan-2-yl)piperazin-1-yl)phenyl)-1H-1,2,4-triazole-3,5-diamine] | 1000 to 10000 nM | 
COc1cc2c(C)nnc(-n3nc(Nc4ccc(N5CCN([C@H]6C[C@@H]7CC[C@H]6C7)CC5)c(F)c4)nc3N)c2cc1OC [Compound 228, 1-(6,7-dimethoxy-1-methylphthalazin-4-yl)-N^3-(3-fluoro-4-(4-((1S,2S,4R)-bicyclo[2.2.1]heptan-2-yl)piperazin-1-yl)phenyl)-1H-1,2,4-triazole-3,5-diamine] | > 20000 nM | 
Nc1nc(Nc2ccc(N3CCN([C@H]4C[C@@H]5CC[C@H]4C5)CC3)c(F)c2)nn1-c1ccc(-c2ccccc2)nn1 [Compound 229, 1-(6-phenylpyridazin-3-yl)-N^3-(3-fluoro-4-(4-((1S,2S,4R)-bicyclo[2.2.1]heptan-2-yl)piperazin-1-yl)phenyl)-1H-1,2,4-triazole-3,5-diamine] | 1000 to 10000 nM | 
Nc1nc(Nc2ccc(N3CCN([C@H]4CC5CCC4C5)CC3)c(F)c2)nn1-c1cc(-c2ccccc2)ccn1 (stereo partly drawn) [Compound 230, 1-(4-phenylpyridin-2-yl)-N^3-(3-fluoro-4-(4-((2S)-bicyclo[2.2.1]heptan-2-yl)piperazin-1-yl)phenyl)-1H-1,2,4-triazole-3,5-diamine] | 1000 to 10000 nM | 
Cc1nnc(-n2nc(Nc3ccc(N4CCN([C@H]5CC6CCC5C6)CC4)c(Cl)c3)nc2N)c2sccc12 (some centres unmarked) [Compound 231, 1-(4-methylthieno[3,2-d]pyridazin-7-yl)-N^3-(3-chloro-4-(4-((2)S-bicyclo[2.2.1]heptan-2-yl)piperazin-1-yl)phenyl)-1H-1,2,4-triazole-3,5-diamine] | < 1000 nM | 
Cc1cc(Nc2nc(N)n(-c3nnc(C)c4ccsc34)n2)ccc1N1CCN([C@H]2C[C@@H]3CC[C@H]2C3)CC1 [Compound 232, 1-(4-methylthieno[3,2-d]pyridazin-7-yl)-N^3-(3-methyl-4-(4-((1S,2S,4R)-bicyclo[2.2.1]heptan-2-yl)piperazin-1-yl)phenyl)-1H-1,2,4-triazole-3,5-diamine] | < 1000 nM | 
Cc1cccc(-c2nc(-n3nc(Nc4ccc(N5CCN(C6CC7CCC6C7)CC5)cc4)nc3N)c3scc(C)c3n2)c1 (centres unmarked) [Compound 233, 1-(7-methyl-2-m-tolylthieno[3,2-d]pyrimidin-4-yl)-N^3-(4-(4-(bicyclo[2.2.1]heptan-2-yl)piperazin-1-yl)phenyl)-1H-1,2,4-triazole-3,5-diamine] | > 20000 nM | 
Cc1csc2c(-n3nc(Nc4ccc(N5CCN(C6CC7CCC6C7)CC5)cc4)nc3N)nc(-c3cccc(C#N)c3)nc12 (centres unmarked) [Compound 234, 1-(7-methyl-2-(3-cyanophenyl)thieno[3,2-d]pyrimidin-4-yl)-N^3-(4-(4-(bicyclo[2.2.1]heptan-2-yl)piperazin-1-yl)phenyl)-1H-1,2,4-triazole-3,5-diamine] | < 1000 nM | 
Cc1csc2c(-n3nc(Nc4ccc(N5CCN([C@H]6CC7CCC6C7)CC5)cc4)nc3N)nc(-c3ccccc3Cl)nc12 (stereo partly drawn) [Compound 235, 1-(7-methyl-2-(2-chlorophenyl)thieno[3,2-d]pyrimidin-4-yl)-N^3-(4-(4-((2S)-bicyclo[2.2.1]heptan-2-yl)piperazin-1-yl)phenyl)-1H-1,2,4-triazole-3,5-diamine] | 1000 to 10000 nM | 
Cc1csc2c(-n3nc(Nc4ccc(N5CCN([C@H]6CC7CCC6C7)CC5)cc4)nc3N)nc(-c3ccc4c(c3)OCO4)nc12 (stereo partly drawn) [Compound 236, 1-(7-methyl-2-benzo[d][1,3]dioxole-5-ylthieno[3,2-d]pyrimidin-4-yl)-N^3-(4-(4-((2S)-bicyclo[2.2.1]heptan-2-yl)piperazin-1-yl)phenyl)-1H-1,2,4-triazole-3,5-diamine] | > 20000 nM | 
Cc1csc2c(-n3nc(Nc4ccc(N5CCN([C@H]6CC7CCC6C7)CC5)cc4)nc3N)nc(-c3ccncc3)nc12 (stereo partly drawn) [Compound 237, 1-(7-methyl-2-pyridin-4-ylthieno[3,2-d]pyrimidin-4-yl)-N^3-(4-(4-((2S)-bicyclo[2.2.1]heptan-2-yl)piperazin-1-yl)phenyl)-1H-1,2,4-triazole-3,5-diamine] | < 1000 nM | 
Cc1csc2c(-n3nc(Nc4ccc(N5CCN([C@H]6CC7CCC6C7)CC5)cc4)nc3N)nc(-c3cccc(NS(C)(=O)=O)c3)nc12 (stereo partly drawn) [Compound 238, 1-(7-methyl-2-(3-(methylsulfonyl)aminophenyl)thieno[3,2-d]pyrimidin-4-yl)-N^3-(4-(4-((2S)-bicyclo[2.2.1]heptan-2-yl)piperazin-1-yl)phenyl)-1H-1,2,4-triazole-3,5-diamine] | 1000 to 10000 nM | 
Cc1csc2c(-n3nc(Nc4ccc(N5CCN([C@H]6CC7CCC6C7)CC5)cc4)nc3N)nc(C=CCN3CCCC3)nc12 (stereo partly drawn) [Compound 239, 1-(7-methyl-2-(3-(pyrrolidin-1-yl)prop-1-enyl)thieno[3,2-d]pyrimidin-4-yl)-N^3-(4-(4-((2S)-bicyclo[2.2.1]heptan-2-yl)piperazin-1-yl)phenyl)-1H-1,2,4-triazole-3,5-diamine] | 1000 to 10000 nM | 
Cc1csc2c(-n3nc(Nc4ccc(N5CCN([C@H]6CC7CCC6C7)CC5)cc4)nc3N)nc(C=CCN3CCN(C)CC3)nc12 (stereo partly drawn) [Compound 240, 1-(7-methyl-2-(3-(4-methylpiperazin-1-yl)prop-1-enyl)thieno[3,2-d]pyrimidin-4-yl)-N^3-(4-(4-((2S)-bicyclo[2.2.1]heptan-2-yl)piperazin-1-yl)phenyl)-1H-1,2,4-triazole-3,5-diamine] | 1000 to 10000 nM | 
Cc1csc2c(-n3nc(Nc4ccc(N5CCN([C@H]6CC7CCC6C7)CC5)cc4)nc3N)nc(/C=C/CN3CCOCC3)nc12 (stereo partly drawn) [Compound 241, 1-((E)-7-methyl-2-(3-(morpholin-4-yl)prop-1-enyl)thieno[3,2-d]pyrimidin-4-yl)-N^3-(4-(4-((2S)-bicyclo[2.2.1]heptan-2-yl)piperazin-1-yl)phenyl)-1H-1,2,4-triazole-3,5-diamine] | 1000 to 10000 nM | 
Cc1csc2c(-n3nc(Nc4ccc(N5CCN([C@H]6C[C@@H]7CC[C@H]6C7)CC5)c(Cl)c4)nc3N)ncnc12 [Compound 242, 1-(7-methylthieno[3,2-d]pyrimidin-4-yl)-N^3-(3-chloro-4-(4-((1S,2S,4R)-bicyclo[2.2.1]heptan-2-yl)piperazin-1-yl)phenyl)-1H-1,2,4-triazole-3,5-diamine] | < 1000 nM | 
Nc1nc(Nc2ccc(N3CCN([C@H]4C[C@@H]5CC[C@H]4C5)CC3)c(Cl)c2)nn1-c1ncnc2ccsc12 [Compound 243, 1-thieno[3,2-d]pyrimidin-4-yl-N^3-(3-chloro-4-(4-((1S,2S,4R)-bicyclo[2.2.1]heptan-2-yl)piperazin-1-yl)phenyl)-1H-1,2,4-triazole-3,5-diamine] | < 1000 nM | 
Nc1nc(Nc2ccc(N3CCN([C@H]4C[C@@H]5CC[C@H]4C5)CC3)c(Cl)c2)nn1-c1ncnc2sccc12 [Compound 244, 1-thieno[2,3-d]pyrimidin-4-yl-N^3-(3-chloro-4-(4-((1S,2S,4R)-bicyclo[2.2.1]heptan-2-yl)piperazin-1-yl)phenyl)-1H-1,2,4-triazole-3,5-diamine] | < 1000 nM | 
Cc1csc2c(-n3nc(Nc4ccc(N5CCN([C@H]6C[C@@H]7CC[C@H]6C7)CC5)c(F)c4)nc3N)ncnc12 [Compound 245, 1-(7-methylthieno[3,2-d]pyrimidin-4-yl)-N^3-(3-fluoro-4-(4-((1S,2S,4R)-bicyclo[2.2.1]heptan-2-yl)piperazin-1-yl)phenyl)-1H-1,2,4-triazole-3,5-diamine] | < 1000 nM | 
CNC(=O)c1ccc(Nc2nc(NC)n(-c3ccccc3)n2)cc1 [Compound 246, 1-phenyl-N^3-(4-(methylaminocarbonyl)-phenyl)-N^5-methyl-1H-1,2,4-triazole-3,5-diamine] |  | IC50 [3]: > 20000 nM
CCOC(=O)c1ccc(Nc2nc(NC)n(-c3ccccc3)n2)cc1 [Compound 247, 1-phenyl-N^3-(4-(ethyloxocarbonyl)phenyl)-N^5-methyl-1H-1,2,4-triazole-3,5-diamine] |  | IC50 [3]: > 20000 nM
